ChEMBL document CHEMBL1201862, “PubChem BioAssay data set” (2004)
The source made the active and inactive calls.

Legend:
[1] = target: T1, Endoribonuclease toxin MazF (Escherichia coli K-12, UniProt P0AE70); experiment: substrate-only fluorescence increase artefacts – biochemical, single-stranded RNase substrate, counter-screen for MazEF activator project, dose response (AID 588502); format: functional
T1 sequence (P0AE70 whole entry): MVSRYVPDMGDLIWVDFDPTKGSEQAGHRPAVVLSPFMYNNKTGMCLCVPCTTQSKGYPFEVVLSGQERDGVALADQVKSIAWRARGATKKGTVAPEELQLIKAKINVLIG

[2] = target: T2, Oxysterols receptor LXR-beta (Homo sapiens, UniProt P55055); experiment: LXR agonists, Gal4 luciferase reporter, dose response, counter-screen for ssDAF-12 agonist project, cell-based, luminescence, HEK293, S. stercoralis campaign (AID 720737); format: functional; conditions: read-out: IC50 (the source's name)
T2 sequence (P55055 whole entry): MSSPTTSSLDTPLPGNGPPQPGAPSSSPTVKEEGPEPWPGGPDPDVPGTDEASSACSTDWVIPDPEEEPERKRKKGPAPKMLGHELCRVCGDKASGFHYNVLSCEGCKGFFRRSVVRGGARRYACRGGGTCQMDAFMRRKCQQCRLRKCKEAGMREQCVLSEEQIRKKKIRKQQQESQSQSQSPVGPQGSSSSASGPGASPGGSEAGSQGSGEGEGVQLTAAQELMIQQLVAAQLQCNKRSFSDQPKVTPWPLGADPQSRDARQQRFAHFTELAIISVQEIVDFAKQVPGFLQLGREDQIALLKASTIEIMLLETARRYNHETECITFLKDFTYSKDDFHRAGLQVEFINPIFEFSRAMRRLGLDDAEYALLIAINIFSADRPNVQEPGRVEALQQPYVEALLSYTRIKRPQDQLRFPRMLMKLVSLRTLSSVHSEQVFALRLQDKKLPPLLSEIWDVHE

[3] = target: T1, Endoribonuclease toxin MazF; experiment: activation of MazEF endoribonuclease cleavage – biochemical, fluorescence, single-stranded RNA substrate, uHTS hits, dose response (AID 588481); format: functional
[4] = Luminescence-based cell-based high throughput dose response assay to identify activators of the DAF-12 from the parasite S. stercoralis (ssDAF-12).; format: functional
Protein skinhead-1 = target: T3, Protein skinhead-1 (Caenorhabditis elegans, UniProt P34707); format: functional
T3 sequence (P34707 whole entry): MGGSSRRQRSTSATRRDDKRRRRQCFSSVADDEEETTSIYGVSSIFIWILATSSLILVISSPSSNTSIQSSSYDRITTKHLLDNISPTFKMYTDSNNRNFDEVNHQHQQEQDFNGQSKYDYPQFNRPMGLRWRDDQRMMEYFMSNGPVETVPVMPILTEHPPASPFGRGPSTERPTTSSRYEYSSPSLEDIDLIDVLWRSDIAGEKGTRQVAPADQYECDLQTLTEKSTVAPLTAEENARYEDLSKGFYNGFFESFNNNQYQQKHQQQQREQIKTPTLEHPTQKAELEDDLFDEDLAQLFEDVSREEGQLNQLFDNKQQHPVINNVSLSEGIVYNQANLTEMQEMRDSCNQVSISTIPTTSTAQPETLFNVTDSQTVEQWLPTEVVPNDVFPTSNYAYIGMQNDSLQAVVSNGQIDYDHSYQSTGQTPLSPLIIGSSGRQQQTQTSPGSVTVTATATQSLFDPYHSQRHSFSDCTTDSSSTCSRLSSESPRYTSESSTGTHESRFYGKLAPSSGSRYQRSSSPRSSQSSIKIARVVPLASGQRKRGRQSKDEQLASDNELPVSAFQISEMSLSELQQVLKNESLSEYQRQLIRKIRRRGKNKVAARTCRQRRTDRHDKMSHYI

HeLa = experiment: toxicity to human HeLa cells – cell-based, 48 h, plate reader, cherry-picks, cytotoxicity control, dose response (AID 504942); format: functional
[5] = target: T4, Acyl-homoserine lactone acylase PvdQ (Pseudomonas aeruginosa (strain LESB58), UniProt Q9I194); experiment: PvdQ acylase enzyme activity blockers – biochemical, fluorescence, plate reader and imaging, cherry-picks, dose response (AID 493231)
T4 sequence (Q9I194 whole entry): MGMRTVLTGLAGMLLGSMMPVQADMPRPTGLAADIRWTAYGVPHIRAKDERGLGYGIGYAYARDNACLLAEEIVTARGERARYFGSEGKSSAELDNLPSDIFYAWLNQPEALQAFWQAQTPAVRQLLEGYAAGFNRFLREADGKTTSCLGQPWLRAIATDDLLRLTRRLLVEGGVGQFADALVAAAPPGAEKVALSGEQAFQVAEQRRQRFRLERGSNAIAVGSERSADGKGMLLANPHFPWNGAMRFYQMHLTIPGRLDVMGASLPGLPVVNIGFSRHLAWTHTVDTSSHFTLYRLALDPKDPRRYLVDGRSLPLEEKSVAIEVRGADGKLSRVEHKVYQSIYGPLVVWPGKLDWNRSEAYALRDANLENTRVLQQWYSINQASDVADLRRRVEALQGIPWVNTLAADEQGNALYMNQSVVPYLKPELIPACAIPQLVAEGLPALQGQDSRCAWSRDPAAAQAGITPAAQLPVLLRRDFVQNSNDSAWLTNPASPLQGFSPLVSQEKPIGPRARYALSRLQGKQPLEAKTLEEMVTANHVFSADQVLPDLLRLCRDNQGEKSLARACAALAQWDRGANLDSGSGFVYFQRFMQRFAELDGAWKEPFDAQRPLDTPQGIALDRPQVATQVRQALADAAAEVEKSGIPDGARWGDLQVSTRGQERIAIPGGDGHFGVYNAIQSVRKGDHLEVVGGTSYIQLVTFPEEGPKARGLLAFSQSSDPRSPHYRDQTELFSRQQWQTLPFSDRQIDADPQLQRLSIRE

Hexokinase HKDC1 = target: T5, Hexokinase HKDC1 (Homo sapiens, UniProt Q2TB90); experiment: SAR analysis of small molecule inhibitors of hexokinase domain containing I (HKDC1). [Related pubchem assays (depositor defined):AID493160, AID493190]; format: functional
T5 sequence (Q2TB90 whole entry): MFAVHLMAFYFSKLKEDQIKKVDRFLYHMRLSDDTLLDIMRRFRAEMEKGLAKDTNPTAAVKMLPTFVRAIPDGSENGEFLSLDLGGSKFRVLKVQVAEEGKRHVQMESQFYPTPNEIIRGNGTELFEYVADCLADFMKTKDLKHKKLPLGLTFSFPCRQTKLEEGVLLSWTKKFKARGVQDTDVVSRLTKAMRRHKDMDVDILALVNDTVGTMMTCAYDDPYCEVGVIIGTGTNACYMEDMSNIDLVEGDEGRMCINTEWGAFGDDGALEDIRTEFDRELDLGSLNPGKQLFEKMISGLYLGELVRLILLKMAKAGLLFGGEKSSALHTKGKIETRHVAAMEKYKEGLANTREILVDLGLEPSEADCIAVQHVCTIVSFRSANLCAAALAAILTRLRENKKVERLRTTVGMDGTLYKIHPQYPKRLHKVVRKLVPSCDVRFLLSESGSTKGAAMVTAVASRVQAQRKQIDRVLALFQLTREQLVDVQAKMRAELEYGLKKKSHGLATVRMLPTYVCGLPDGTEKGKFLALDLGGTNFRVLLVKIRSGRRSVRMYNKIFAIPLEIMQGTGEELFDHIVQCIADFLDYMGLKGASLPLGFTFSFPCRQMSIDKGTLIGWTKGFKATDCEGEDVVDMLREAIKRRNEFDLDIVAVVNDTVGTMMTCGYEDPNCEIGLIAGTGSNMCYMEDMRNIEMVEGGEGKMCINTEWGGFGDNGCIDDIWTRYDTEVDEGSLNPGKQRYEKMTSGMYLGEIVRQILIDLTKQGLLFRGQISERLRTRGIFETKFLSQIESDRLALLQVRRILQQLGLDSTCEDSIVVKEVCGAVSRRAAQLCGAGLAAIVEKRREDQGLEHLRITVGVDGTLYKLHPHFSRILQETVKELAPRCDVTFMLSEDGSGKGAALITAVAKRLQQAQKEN

Hexokinase-1 = target: T6, Hexokinase-1 (Homo sapiens, UniProt P19367); experiment: SAR analysis of small molecule inhibitors of hexokinase domain containing I (HKDC1) in the hexokinase 1 selectivity assay. [Related pubchem assays (depositor defined):AID493160, AID493190]; format: functional
T6 sequence (P19367 whole entry): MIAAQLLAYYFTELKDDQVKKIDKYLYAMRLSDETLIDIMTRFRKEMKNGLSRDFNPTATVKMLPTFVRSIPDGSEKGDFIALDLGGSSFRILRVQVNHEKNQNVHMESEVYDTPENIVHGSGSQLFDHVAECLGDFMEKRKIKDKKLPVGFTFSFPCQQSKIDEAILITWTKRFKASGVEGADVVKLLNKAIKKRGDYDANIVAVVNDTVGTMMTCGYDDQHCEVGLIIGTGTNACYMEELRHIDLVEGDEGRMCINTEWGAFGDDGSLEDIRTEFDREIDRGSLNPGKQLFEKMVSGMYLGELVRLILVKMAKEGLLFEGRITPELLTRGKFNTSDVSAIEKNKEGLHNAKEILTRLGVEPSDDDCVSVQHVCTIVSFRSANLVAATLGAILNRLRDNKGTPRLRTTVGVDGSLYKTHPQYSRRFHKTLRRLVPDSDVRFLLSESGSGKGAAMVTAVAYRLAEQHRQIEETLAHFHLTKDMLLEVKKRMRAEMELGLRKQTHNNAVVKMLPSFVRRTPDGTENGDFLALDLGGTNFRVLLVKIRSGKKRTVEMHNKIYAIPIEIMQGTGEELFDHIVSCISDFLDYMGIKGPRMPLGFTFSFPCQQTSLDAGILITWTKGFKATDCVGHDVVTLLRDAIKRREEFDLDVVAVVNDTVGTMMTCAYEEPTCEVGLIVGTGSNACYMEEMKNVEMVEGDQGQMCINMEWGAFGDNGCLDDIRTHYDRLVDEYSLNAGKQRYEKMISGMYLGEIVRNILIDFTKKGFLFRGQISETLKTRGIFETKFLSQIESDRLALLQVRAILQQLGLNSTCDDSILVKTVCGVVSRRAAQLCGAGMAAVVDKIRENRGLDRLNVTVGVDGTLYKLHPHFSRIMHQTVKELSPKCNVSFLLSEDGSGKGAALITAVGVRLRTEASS

BJ [6] = experiment: BJ-TERT-LT-ST fibroblast viability loss – cell-based, RAS-independent, luminescence, dose response (AID 1935); format: functional; conditions: Homo sapiens;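 note: BJ fibroblasts immortalized with TERT plus LT and ST oncogenes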
BJ [7] = experiment: growth inhibition of engineered Ras-driven BJ cells – cell-based, alamar blue fluorescence, cherrypicked samples, dose response (AID 2631); format: functional; conditions: Homo sapiens;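 note: confirmatory dose-response assay in RAS-dependent BJ fibroblasts engineered with TERT, LT and ST, with cytotoxicity read by fluorescence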
BJ [8] = experiment: BJ-TERT fibroblast viability loss – cell-based, RAS-independent, luminescence, dose response (AID 1933); format: functional; conditions: Homo sapiens
BJ [9] = experiment: cells; format: functional, cell-based; conditions: Homo sapiens
[10] = DRD fibroblast viability loss – cell-based, non-viral oncogenic, luminescence, dose response (AID 1934); format: functional; conditions: Homo sapiens
[11] = target: T7, Short transient receptor potential channel 4 (Mus musculus, UniProt Q9QUQ5); experiment: block of DAMGO-driven TRPC4 calcium entry – cell-based, HEK293 TRPC4/mu-opioid, Fluo-4 calcium, dose response (AID 434942); format: functional;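 note: potency of inhibitors blocking the TRPC4 calcium response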
T7 sequence (Q9QUQ5 whole entry): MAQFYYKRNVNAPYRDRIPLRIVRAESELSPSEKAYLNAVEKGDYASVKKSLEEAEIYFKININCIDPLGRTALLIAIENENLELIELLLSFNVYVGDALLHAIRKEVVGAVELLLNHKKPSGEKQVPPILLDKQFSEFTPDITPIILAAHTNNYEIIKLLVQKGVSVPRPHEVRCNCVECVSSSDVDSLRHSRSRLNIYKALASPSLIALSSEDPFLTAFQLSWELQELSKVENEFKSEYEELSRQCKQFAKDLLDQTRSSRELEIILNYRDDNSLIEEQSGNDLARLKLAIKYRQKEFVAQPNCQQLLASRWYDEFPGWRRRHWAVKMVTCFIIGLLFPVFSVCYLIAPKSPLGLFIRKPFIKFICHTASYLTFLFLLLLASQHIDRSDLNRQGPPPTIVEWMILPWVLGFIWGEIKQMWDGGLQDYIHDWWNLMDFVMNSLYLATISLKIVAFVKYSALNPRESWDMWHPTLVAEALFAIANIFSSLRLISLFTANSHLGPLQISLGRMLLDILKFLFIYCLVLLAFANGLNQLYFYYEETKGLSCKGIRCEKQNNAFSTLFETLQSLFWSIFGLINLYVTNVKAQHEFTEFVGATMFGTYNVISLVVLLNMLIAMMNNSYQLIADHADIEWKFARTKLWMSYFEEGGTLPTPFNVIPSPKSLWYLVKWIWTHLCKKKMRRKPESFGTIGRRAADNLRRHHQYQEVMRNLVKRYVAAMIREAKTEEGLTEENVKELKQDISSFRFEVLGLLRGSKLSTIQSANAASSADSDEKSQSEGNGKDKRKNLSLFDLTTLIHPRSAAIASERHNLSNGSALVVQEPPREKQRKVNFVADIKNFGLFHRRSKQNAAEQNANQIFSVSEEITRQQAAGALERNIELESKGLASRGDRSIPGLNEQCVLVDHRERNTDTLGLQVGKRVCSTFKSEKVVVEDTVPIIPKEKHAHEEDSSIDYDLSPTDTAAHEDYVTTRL

HEK293 [12] = experiment: SAR Analysis of small molecule inhibitors of T-cell specific antigen receptor-induced NF-kB activation in a HEK-293T cell line using a luminescence assay - Set 2. [Related pubchem assays (depositor defined):AID435003, AID435012, AID489026]; format: functional, cell-based; conditions: Homo sapiens
Jurkat = experiment: SAR Analysis of small molecule inhibitors of T-cell specific antigen receptor-induced NF-kB activation in a Jurkat cell line using a luminescence assay - Set 2. [Related pubchem assays (depositor defined):AID435003, AID435012, AID465]; format: functional, cell-based; conditions: Homo sapiens
HEK293 [13] = experiment: HEK293T cell viability loss, resazurin readout – resazurin fluorescence, cytotoxicity control for NF-kB activator project, SAR follow-up (AID 493251); format: functional, cell-based; conditions: Homo sapiens

N#C/C(=C/c1ccco1)c1nc2ccccc2s1
EC50 [1]: 54.8 µM (inactive) | EC50 [2]: > 67.5 µM (inactive) | EC50 [3]: 23.7 µM (inactive) | IC50 [4]: > 67.5 µM (inactive) | IC50 (Protein skinhead-1): > 100 µM (inactive) | AC50 (HeLa): 53.7 µM (active) | AC50 [5]: 12.5 µM (active)

Cc1cccc(/C=C/c2nc3ccccc3c(=O)n2Cc2ccccc2)c1
IC50 (Hexokinase HKDC1): > 80 µM (inactive) | IC50 (Hexokinase-1): > 80 µM (inactive)

COC(=O)c1cccc(Nc2c3c(nc4ccccc24)CCC3)c1
EC50 (BJ [6]): > 150 µM (inconclusive) | EC50 (BJ [7]): > 133 µM (inactive) | EC50 (BJ [8]): 28.4 µM (active) | EC50 (BJ [9]): 18.2 µM (active) | EC50 [10]: 19.2 µM (active) | EC50 [11]: 2.11 µM (active)

Cc1ccc(C)c(NC(=O)c2ccc([N+](=O)[O-])o2)c1
IC50 (HEK293 [12]): 46.6 µM (inactive) | IC50 (Jurkat): 14.1 µM (active) | IC50 (HEK293 [13]): > 80 µM (inactive)
